In ChEMBL document CHEMBL4043139, “Fluoro and pentafluorothio analogs of the antitumoral curcuminoid EF24 with superior antiangiogenic and vascular-disruptive effects” (Bioorg Med Chem, 2017):
pIC50: −log10 of the molar value. Activity calls are given as the source filed them. No cut-off for these calls is given here.

Legend:
Gallus gallus [1] = experiment: Vascular disruptive activity in 6 days post fertilized chicken egg chorioallantoic/vitelline membrane assessed as disruption of capillary reticulation at 10 nmol administered topically measured after 6 hrs by stereo-microscopic analysis; type: functional
Gallus gallus [2] = experiment: Vascular disruptive activity in 6 days post fertilized chicken egg chorioallantoic/vitelline membrane assessed as degradation of blood vessels at 10 nmol administered topically measured after 6 hrs by stereo-microscopic analysis; type: functional
518A2 [3] = experiment: Cytotoxicity against human 518A2 cells after 72 hrs by MTT assay; type: functional, cell-based
HT-29 [4] = experiment: Cytotoxicity against human HT-29 cells after 72 hrs by MTT assay; type: functional, cell-based
HCT-116 = experiment: Cytotoxicity against human HCT116 cells after 72 hrs by MTT assay; type: functional, cell-based
DLD-1 = experiment: Cytotoxicity against human DLD1 cells after 72 hrs by MTT assay; type: functional, cell-based
PANC-1 = experiment: Cytotoxicity against human PANC1 cells after 72 hrs by MTT assay; type: functional, cell-based
[5] = (§1) Cytotoxicity against human KB-V1/Vbl cells after 72 hrs by MTT assay; type: functional, cell-based
KB-V1/Vbl = experiment: as §1; type: functional, cell-based
[6] = (§2) Cytotoxicity against human MCF7/Topo cells after 72 hrs by MTT assay; type: functional, cell-based
MCF7/Topo = experiment: as §2; type: functional, cell-based
[7] = (§3) Cytotoxicity against human U87 cells after 72 hrs by MTT assay; type: functional, cell-based, U-87MG ATCC; details: U-87 MG
U-87MG ATCC [8] = experiment: as §3; type: functional, cell-based
[9] = Cytotoxicity against HDFa after 72 hrs by MTT assay; type: cell-based; details: Homo sapiens
HT-29 [10] = experiment: Cell cycle arrest in human HT-29 cells assessed as accumulation at sub-G1 phase at 1 uM after 24 hrs by propidium iodide staining based flow cytometric analysis (reference value: 0.9 +/- 0.1%); type: functional
HT-29 [11] = experiment: Cell cycle arrest in human HT-29 cells assessed as accumulation at sub-G1 phase at 2.5 uM after 24 hrs by propidium iodide staining based flow cytometric analysis (reference value: 0.9 +/- 0.1%); type: functional
HT-29 [12] = experiment: Cell cycle arrest in human HT-29 cells assessed as accumulation at sub-G1 phase at 5 uM after 24 hrs by propidium iodide staining based flow cytometric analysis (reference value: 0.9 +/- 0.1%); type: functional
HT-29 [13] = experiment: Cell cycle arrest in human HT-29 cells assessed as accumulation at G1 phase at 1 uM after 24 hrs by propidium iodide staining based flow cytometric analysis (reference value: 68 +/- 0.9%); type: functional
HT-29 [14] = experiment: Cell cycle arrest in human HT-29 cells assessed as accumulation at G1 phase at 2.5 uM after 24 hrs by propidium iodide staining based flow cytometric analysis (reference value: 68 +/- 0.9%); type: functional
HT-29 [15] = experiment: Cell cycle arrest in human HT-29 cells assessed as accumulation at G1 phase at 5 uM after 24 hrs by propidium iodide staining based flow cytometric analysis (reference value: 68 +/- 0.9%); type: functional
HT-29 [16] = experiment: Cell cycle arrest in human HT-29 cells assessed as accumulation at S phase at 1 uM after 24 hrs by propidium iodide staining based flow cytometric analysis (reference value: 15.6 +/- 0.3%); type: functional
HT-29 [17] = experiment: Cell cycle arrest in human HT-29 cells assessed as accumulation at S phase at 2.5 uM after 24 hrs by propidium iodide staining based flow cytometric analysis (reference value: 15.6 +/- 0.3%); type: functional
HT-29 [18] = experiment: Cell cycle arrest in human HT-29 cells assessed as accumulation at S phase at 5 uM after 24 hrs by propidium iodide staining based flow cytometric analysis (reference value: 15.6 +/- 0.3%); type: functional
HT-29 [19] = experiment: Cell cycle arrest in human HT-29 cells assessed as accumulation at G2/M phase at 1 uM after 24 hrs by propidium iodide staining based flow cytometric analysis (reference value: 15.5 +/- 0.5%); type: functional
HT-29 [20] = experiment: Cell cycle arrest in human HT-29 cells assessed as accumulation at G2/M phase at 2.5 uM after 24 hrs by propidium iodide staining based flow cytometric analysis (reference value: 15.5 +/- 0.5%); type: functional
HT-29 [21] = experiment: Cell cycle arrest in human HT-29 cells assessed as accumulation at G2/M phase at 5 uM after 24 hrs by propidium iodide staining based flow cytometric analysis (reference value: 15.5 +/- 0.5%); type: functional
HT-29 [22] = experiment: Upregulation of cyclin B1 expression in human HT-29 cells at 1 to 2.5 uM after 24 hrs by Western blot analysis; type: functional, cell-based
Homo sapiens = species: Homo sapiens; experiment: Inhibition of NF-kappaB in human 518A2 cells assessed as reduction in p65 subunit expression at 0.5 to 1 uM after 24 hrs by Western blot analysis; type: cell-based
518A2 [23] = experiment: Anti-migratory activity in human 518A2 cells assessed as wound closure at 250 nM after 24 hrs by light microscopic analysis; type: functional, cell-based
518A2 [24] = experiment: Anti-migratory activity in human 518A2 cells assessed as wound closure at 250 nM after 48 hrs by light microscopic analysis (reference value: 100%); type: functional
Danio rerio = species: Danio rerio; experiment: Antiangiogenic activity in 72 hrs post fertilized zebra fish embryo harboring fli1a:EGFP assessed as area of subintestinal veins at 5 uM after 48 hrs by fluorescence microscopic analysis (reference value: 100%); type: functional
Gallus gallus [25] = experiment: Toxicity in 6 days post fertilized chicken egg at 10 nmol administered topically; details: in vivo, topical_or_ocular, 144 h
Gallus gallus [26] = experiment: Vascular disruptive activity in 6 days post fertilized chicken egg chorioallantoic/vitelline membrane at 10 nmol administered topically measured after 24 hrs by stereo-microscopic analysis; type: functional
Gallus gallus [27] = experiment: Vascular disruptive activity in 6 days post fertilized chicken egg assessed as area covered by blood vessels at 10 nmol administered topically measured after 6 hrs by light microscopic analysis relative to control; type: functional
U-87MG ATCC [28] = experiment: Anti-vasculogenic activity in human U87 cells assessed as reduction in formation of cord-like structures at 2.5 uM after 24 hrs by matrigel based light microscopic analysis; type: functional, cell-based
U-87MG ATCC [29] = experiment: Anti-vasculogenic activity in human U87 cells assessed as reduction in formation of blood-vessel like tubular structures at 2.5 uM after 24 hrs by matrigel based light microscopic analysis; type: functional, cell-based
U-87MG ATCC [30] = experiment: Anti-vasculogenic activity in human U87 cells assessed as reduction in formation of small stray colonies at 2.5 uM after 24 hrs by matrigel based light microscopic analysis; type: functional, cell-based
[31] = Cytotoxicity against human U87 cells assessed as cell viability at 10 nmol after 24 hrs by MTT assay relative to control; type: cell-based, U-87MG ATCC; details: read-out: Activity
U-87MG ATCC [32] = experiment: Vascular disruptive activity in human U87 cells assessed as disruption of preformed tubular networks at 1 uM after 24 hrs by matrigel based light microscopic analysis; type: functional, cell-based
[33] = Cytotoxicity against human U87 cells assessed as effect on cell viability at 1 uM after 24 hrs by MTT assay; type: cell-based; details: u-87mg atcc

Question: Which Activity (Gallus gallus [1]) does the source give for CN1C/C(=C\c2cc(F)c(F)cc2F)C(=O)/C(=C/c2cc(F)c(F)cc2F)C1 here?
Answer: The Activity was “Active”.

Question: What about the Activity (Gallus gallus [2]) of the same compound?
Answer: The Activity was “Active”.

Question: And the Activity (518A2 [3])?
Answer: The Activity was “Dose-dependent effect”.

Question: What about the pIC50 (518A2 [3]; 518A2, 72 h) of the same compound?
Answer: Its pIC50 is 5.80.

Question: And the Activity (HT-29 [4])?
Answer: Its Activity is “Dose-dependent effect”.

Question: And the pIC50 (HT-29 [4]; HT-29, 72 h)?
Answer: Its pIC50 is 6.08.

Question: And the Activity (HCT-116)?
Answer: Its Activity is “Dose-dependent effect”.

Question: And the pIC50 (HCT-116; HCT-116, 72 h)?
Answer: Its pIC50 is 5.82.

Question: What about the Activity (DLD-1) of the same compound?
Answer: The Activity was “Dose-dependent effect”.

Question: What about the pIC50 (DLD-1; DLD-1, 72 h) of the same compound?
Answer: Its pIC50 is 5.74.

Question: And the Activity (PANC-1)?
Answer: Its Activity is “Dose-dependent effect”.

Question: What about the pIC50 (PANC-1; PANC-1, 72 h) of the same compound?
Answer: Its pIC50 is 5.80.

Question: What about the pIC50 [5] of the same compound?
Answer: The pIC50 was 6.14.

Question: What about the Activity (KB-V1/Vbl) of the same compound?
Answer: Its Activity is “Dose-dependent effect”.

Question: And the pIC50 [6]?
Answer: Its pIC50 is 5.80.

Question: And the Activity (MCF7/Topo)?
Answer: Its Activity is “Dose-dependent effect”.

Question: What about the pIC50 [7] of the same compound?
Answer: Its pIC50 is 5.51.

Question: What about the Activity (U-87MG ATCC [8]) of the same compound?
Answer: Its Activity is “Dose-dependent effect”.

Question: What about the pIC50 [9] of the same compound?
Answer: The pIC50 was less than 5.00.

Question: And the Activity (HT-29 [10])?
Answer: Its Activity is 2.3%.

Question: What about the Activity (HT-29 [11]) of the same compound?
Answer: The Activity was 17%.

Question: What about the Activity (HT-29 [12]) of the same compound?
Answer: The Activity was 19.7%.

Question: And the Activity (HT-29 [13])?
Answer: The Activity was 61.3%.

Question: What about the Activity (HT-29 [14]) of the same compound?
Answer: The Activity was 46.8%.

Question: What about the Activity (HT-29 [15]) of the same compound?
Answer: The Activity was 28.2%.

Question: And the Activity (HT-29 [16])?
Answer: The Activity was 18.7%.

Question: What about the Activity (HT-29 [17]) of the same compound?
Answer: Its Activity is 13%.

Question: What about the Activity (HT-29 [18]) of the same compound?
Answer: Its Activity is 28.3%.

Question: And the Activity (HT-29 [19])?
Answer: The Activity was 17.7%.

Question: And the Activity (HT-29 [20])?
Answer: Its Activity is 23.2%.

Question: What about the Activity (HT-29 [21]) of the same compound?
Answer: The Activity was 23.7%.

Question: What about the Activity (HT-29 [22]) of the same compound?
Answer: Its Activity is “Active”.

Question: And the inhibition (Homo sapiens)?
Answer: Its inhibition is “Active”.

Question: And the Activity (518A2 [23])?
Answer: Its Activity is “Active”.

Question: And the Activity (518A2 [24])?
Answer: Its Activity is “Active”.

Question: What about the Activity (Danio rerio) of the same compound?
Answer: Its Activity is 39%.

Question: What about the Activity (Gallus gallus [25]) of the same compound?
Answer: Its Activity is “Non-Toxic”.

Question: And the Activity (Gallus gallus [26])?
Answer: The Activity was “inactive”.

Question: And the Activity (Gallus gallus [27])?
Answer: Its Activity is 44%.

Question: What about the Activity (U-87MG ATCC [28]) of the same compound?
Answer: The Activity was “inactive”.

Question: And the Activity (U-87MG ATCC [29])?
Answer: The Activity was “inactive”.

Question: What about the Activity (U-87MG ATCC [30]) of the same compound?
Answer: Its Activity is “inactive”.

Question: And the viability at 24 h, 10 nmol [31]?
Answer: Its viability at 24 h, 10 nmol is greater than 85%.

Question: What about the Activity (U-87MG ATCC [32]) of the same compound?
Answer: The Activity was “Active”.

Question: And the Activity [33]?
Answer: Its Activity is “Non-Toxic”.
